According to US20260248834A1, “PHARMACEUTICAL COMPOSITION AND METHOD FOR TREATMENT OF HUMAN IMMUNODEFICIENCY VIRUS INFECTIONS” (Brii Biosciences, Inc., priority 2022, published 2026):

Experiments:
[1] = Intracellular half-life of EFdA triphosphate in human; type: in vivo; conditions: cells (intracellular; cell type not given), read-out: intracellular half-life of EFdA triphosphate (EFdA-TP) (converted)
[2] = Stability in Human Plasma (conversion to EFdA); type: in vitro ADME
Source text: (§1) The adenosine derivative having the Formula 1-A was produced according to the process described in PCT publication WO2021021717, published on Feb. 4, 2021, herein incorporated by reference. [table]

[3] = Stability in Human Liver S9 (conversion to EFdA); type: in vitro ADME
Source text: as §1

[4] = Phase I study: pharmacokinetics of 1-A and islatravir in plasma; type: in vivo, human
Source text: (§2) This example describes results from a Phase I, randomized, double-blind, placebo-controlled study for adenosine derivative having Formula 1-A (“1-A”), which is a prodrug of islatravir (ISL). Following oral absorption, 1-A is rapidly converted to ISL, which is metabolized intracellularly to the active metabolite, ISL triphosphate (ISL-TP). The objectives of the study were to assess the safety, tolerability, and PK profiles of 1-A and ISL in plasma; and ISL diphosphate (ISL-DP) and ISL-TP in human PBMCs.
(§3) Methods. Healthy adult subjects were enrolled in five single ascending dose and two multiple ascending dose cohorts. 1-A was administered to single dose cohorts in amounts of 10 mg, 25 mg, 50 mg, 100 mg or 200 mg. 1-A was administered to multiple dose cohorts in amounts of 10 mg per week for 3 weeks or 25 mg per week for 3 weeks. 1-A was orally administered in the fasted state using an oral solution formulation. Safety-related assessments included physical examinations, ECGs, vital signs, AEs, and standard clinical laboratory tests.

[5] = Phase I study: pharmacokinetics of ISL-TP in PBMCs; type: in vivo, human; conditions: for ISL-TP in PBMCs AUClast / ISL-TP in PBMCs Cmax: 3 weekly oral doses of 25 mg 1-A, healthy adults, mean
Source text: as §2, §3

[6] = Phase I study: safety and tolerability (treatment-emergent adverse events); type: in vivo, human
Experimental: Following oral absorption, 1-A is rapidly converted to ISL, which is metabolized intracellularly to the active metabolite, ISL triphosphate (ISL-TP). The objectives of the study were to assess the safety, tolerability, and PK profiles of 1-A and ISL in plasma; and ISL diphosphate (ISL-DP) and ISL-TP in human PBMCs.
as §3

[7] = single or multiple oral doses of 1-A, 10 mg to 200 mg

C#C[C@]1(COP(=O)(O)OP(=O)(O)OP(=O)(O)O)O[C@@H](n2cnc3c(N)nc(F)nc32)C[C@@H]1O [EFdA-TP, 4′-ethynyl-2-fluoro-2′-deoxyadenosine triphosphate]
half-life [1]: ~108 h

C#C[C@]1(COC(=O)OCc2oc(=O)oc2C)O[C@@H](n2cnc3c(N)nc(F)nc32)C[C@@H]1O [Formula 1-A, ((2R,3S,5R)-5-(6-amino-2-fluoro-9H-purin-9-yl)-2-ethynyl-3-hydroxytetrahydro-furan-2-yl)methyl ((5-methyl-2-oxo-1,3-dioxol-4-yl)methyl) carbonate]
half-life ([2]; human plasma): < 0.833 h
conversion to the target drug ([2]; human plasma assay): converted to the target drug efficiently
Stability in Human Plasma Formation of EFdA at 60 min ([2]; human plasma, 60 min): Yes
half-life ([3]; human liver S9): < 0.833 h
Stability in Human Liver S9 Formation of EFdA at 60 min ([3]; human liver S9, 60 min): Yes
conversion to the target drug ([3]; human liver S9 assay): converted to the target drug efficiently
PK profiles of ISL in plasma and ISL-TP in PBMC cells ([4]; after single and multiple oral administrations of 1-A): linear pharmacokinetics
systemic exposure to 1-A (plasma, LLOQ) ([4]; single or multiple oral administrations of 1-A up to 200 mg, healthy adults): < 1.0 ng/mL
EFdA accumulation in plasma [4, 7]: No meaningful EFdA accumulation
ISL plasma PK profiles [4, 7]: Dose-dependent
ISL-TP in PBMCs AUClast ([5]; Day 1): 617 h*pmol/10^6 cells
ISL-TP in PBMCs Cmax ([5]; Day 1): 5.70 pmol/10^6 cells
ISL-TP in PBMCs AUClast ([5]; Day 15): 2210 h*pmol/10^6 cells
ISL-TP in PBMCs Cmax ([5]; Day 15): 15.4 pmol/10^6 cells
ISL-TP accumulation in PBMCs ([5]; after 3 weekly doses of 25 mg 1-A): significant ISL-TP accumulations
intracellular formation of ISL-TP in PBMCs ([5]; oral 1-A, dose-dependent manner): Efficient intracellular formation
Number (%) of Subjects with Any Death ([6]; 10 mg QW × 3 oral (N = 3)): 0
Number (%) of Subjects with Any TEAE ([6]; 10 mg QW × 3 oral (N = 3)): 2 (66.7%)
Number (%) of Subjects with Any TEAE Grade 1 ([6]; 10 mg QW × 3 oral (N = 3)): 2 (66.7%)
Number (%) of Subjects with Any TEAE Grade 2, 3, 4, or 5 ([6]; 10 mg QW × 3 oral (N = 3)): 0
Number (%) of Subjects with Any TEAE Leading to Premature Discontinuation of Study Drug ([6]; 10 mg QW × 3 oral (N = 3)): 0
Number (%) of Subjects with Any TEAE Related to Study Drug ([6]; 10 mg QW × 3 oral (N = 3)): 2 (66.7%)
Number (%) of Subjects with Any TEAE Related to Study Drug Grade 1 ([6]; 10 mg QW × 3 oral (N = 3)): 2 (66.7%)
Number (%) of Subjects with Any TEAE Related to Study Drug Grade 2, 3, 4, or 5 ([6]; 10 mg QW × 3 oral (N = 3)): 0
Number (%) of Subjects with Any Treatment-emergent Serious AE ([6]; 10 mg QW × 3 oral (N = 3)): 0
Number (%) of Subjects with Any Death ([6]; 25 mg QW × 3 oral (N = 6)): 0
Number (%) of Subjects with Any TEAE ([6]; 25 mg QW × 3 oral (N = 6)): 2 (33.3%)
Number (%) of Subjects with Any TEAE Grade 1 ([6]; 25 mg QW × 3 oral (N = 6)): 2 (33.3%)
Number (%) of Subjects with Any TEAE Grade 2, 3, 4, or 5 ([6]; 25 mg QW × 3 oral (N = 6)): 0
Number (%) of Subjects with Any TEAE Leading to Premature Discontinuation of Study Drug ([6]; 25 mg QW × 3 oral (N = 6)): 0
Number (%) of Subjects with Any TEAE Related to Study Drug ([6]; 25 mg QW × 3 oral (N = 6)): 2 (33.3%)
Number (%) of Subjects with Any TEAE Related to Study Drug Grade 1 ([6]; 25 mg QW × 3 oral (N = 6)): 2 (33.3%)
Number (%) of Subjects with Any TEAE Related to Study Drug Grade 2, 3, 4, or 5 ([6]; 25 mg QW × 3 oral (N = 6)): 0
Number (%) of Subjects with Any Treatment-emergent Serious AE ([6]; 25 mg QW × 3 oral (N = 6)): 0
tolerability ([6]; single doses up to 200 mg and repeat doses up to 25 mg, healthy adults): generally well tolerated
